From patent US20250197372A1 (priority 2020, published 2025) come the findings set out here.

Usually IC50 stands for the concentration needed to halve the response being measured.

Format in all cases: biochemical
For experiment [1], the target named is rat maltase (partially purified alpha-glucosidase from intestinal rat powder). Briefly: Intestinal alpha-glucosidase assay, maltose substrate (Glucose GO Kit). Summed up: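 Rat intestinal enzyme prep + test cpd dilutions, 60 min 37 °C; add maltose (maltase) or sucrose (sucrase), 30 min 37 °C; stop 90 °C 5 min. Glucose readout (glucose oxidase kit). IC50 from 4-PL fit of % inhibition vs conc.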

Experiment [2] has as its target T1, recombinant alpha-glucosidase II (murine full-length glucosidase II, alpha and beta subunits, Glu 2) (Mus musculus, UniProt Q8BHN3).
T1 construct: made in house; host or cells: HEK-293T cells transduced with BacMam viruses (75% alpha, 25% beta); protein harvested from culture supernatant
Briefly: Alpha-glucosidase II assay (4-methylumbelliferyl-alpha-D-pyranoside substrate, fluorescence). Particulars: Glucosidase 2; read-out: Glu2 IC50.

The target of experiment [3] is rat sucrase (partially purified alpha-glucosidase from intestinal rat powder) (Rattus norvegicus, UniProt P23739). Briefly: Intestinal alpha-glucosidase assay, sucrose substrate (Glucose GO Kit). A digest of the protocol:
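First step: 60 min, 37 °C, compound with partially purified rat intestinal alpha-glucosidase. Next, maltose or sucrose for 30 min at 37 °C, ended at 90 °C for 5 min. Glucose quantified enzymatically; concentration–inhibition data fitted 4-PL for IC50.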

Experiment [4] addresses T2, recombinant human GBA (beta-glucocerebrosidase) (Homo sapiens, UniProt P04062).
T2 sequence (P04062 40-536): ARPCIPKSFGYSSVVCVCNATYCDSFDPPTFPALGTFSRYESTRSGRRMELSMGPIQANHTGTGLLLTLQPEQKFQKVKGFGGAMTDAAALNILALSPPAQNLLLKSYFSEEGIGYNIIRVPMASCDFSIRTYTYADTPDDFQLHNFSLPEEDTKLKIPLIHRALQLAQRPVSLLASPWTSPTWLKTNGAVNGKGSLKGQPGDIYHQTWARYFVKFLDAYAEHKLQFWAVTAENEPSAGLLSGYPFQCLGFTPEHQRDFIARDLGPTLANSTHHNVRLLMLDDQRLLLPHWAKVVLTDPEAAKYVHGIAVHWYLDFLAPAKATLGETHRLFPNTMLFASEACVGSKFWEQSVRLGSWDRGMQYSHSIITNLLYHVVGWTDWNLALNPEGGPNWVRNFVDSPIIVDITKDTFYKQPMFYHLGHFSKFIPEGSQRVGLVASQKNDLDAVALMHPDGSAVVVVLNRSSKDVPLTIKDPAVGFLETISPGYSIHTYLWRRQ
Briefly: Beta-glucocerebrosidase (GBA, glucosylceramidase) assay (4-methylumbelliferyl-beta-D-pyranoside substrate, fluorescence). Summed up: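 IC50 by four-parameter fit of percent inhibition, with product fluorescence (365/440 nm) read after a glycine/NaOH pH 10 stop. Compound and commercial recombinant human enzyme were incubated 60 min at 37 °C before a further 60 min at 37 °C with 4-methylumbelliferyl-beta-D-pyranoside substrate.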

Experiment [5] concerns the target recombinant human GAA (acid alpha-glucosidase) (Homo sapiens, UniProt P10253). Briefly: Acid alpha-glucosidase (GAA) assay (4-methylumbelliferyl-alpha-D-pyranoside substrate, fluorescence). Summed up: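 IC50 from 4-PL curve fit of percent inhibition, based on fluorescence (365/440 nm) of released methylumbelliferone relative to uninhibited enzyme. Compound dilutions and human GAA incubated 60 min, 37 °C, before 20 min substrate reaction at 37 °C, quenched at pH 10.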

Sequence of rat sucrase (partially purified alpha-glucosidase from intestinal rat powder) (P23739 whole entry): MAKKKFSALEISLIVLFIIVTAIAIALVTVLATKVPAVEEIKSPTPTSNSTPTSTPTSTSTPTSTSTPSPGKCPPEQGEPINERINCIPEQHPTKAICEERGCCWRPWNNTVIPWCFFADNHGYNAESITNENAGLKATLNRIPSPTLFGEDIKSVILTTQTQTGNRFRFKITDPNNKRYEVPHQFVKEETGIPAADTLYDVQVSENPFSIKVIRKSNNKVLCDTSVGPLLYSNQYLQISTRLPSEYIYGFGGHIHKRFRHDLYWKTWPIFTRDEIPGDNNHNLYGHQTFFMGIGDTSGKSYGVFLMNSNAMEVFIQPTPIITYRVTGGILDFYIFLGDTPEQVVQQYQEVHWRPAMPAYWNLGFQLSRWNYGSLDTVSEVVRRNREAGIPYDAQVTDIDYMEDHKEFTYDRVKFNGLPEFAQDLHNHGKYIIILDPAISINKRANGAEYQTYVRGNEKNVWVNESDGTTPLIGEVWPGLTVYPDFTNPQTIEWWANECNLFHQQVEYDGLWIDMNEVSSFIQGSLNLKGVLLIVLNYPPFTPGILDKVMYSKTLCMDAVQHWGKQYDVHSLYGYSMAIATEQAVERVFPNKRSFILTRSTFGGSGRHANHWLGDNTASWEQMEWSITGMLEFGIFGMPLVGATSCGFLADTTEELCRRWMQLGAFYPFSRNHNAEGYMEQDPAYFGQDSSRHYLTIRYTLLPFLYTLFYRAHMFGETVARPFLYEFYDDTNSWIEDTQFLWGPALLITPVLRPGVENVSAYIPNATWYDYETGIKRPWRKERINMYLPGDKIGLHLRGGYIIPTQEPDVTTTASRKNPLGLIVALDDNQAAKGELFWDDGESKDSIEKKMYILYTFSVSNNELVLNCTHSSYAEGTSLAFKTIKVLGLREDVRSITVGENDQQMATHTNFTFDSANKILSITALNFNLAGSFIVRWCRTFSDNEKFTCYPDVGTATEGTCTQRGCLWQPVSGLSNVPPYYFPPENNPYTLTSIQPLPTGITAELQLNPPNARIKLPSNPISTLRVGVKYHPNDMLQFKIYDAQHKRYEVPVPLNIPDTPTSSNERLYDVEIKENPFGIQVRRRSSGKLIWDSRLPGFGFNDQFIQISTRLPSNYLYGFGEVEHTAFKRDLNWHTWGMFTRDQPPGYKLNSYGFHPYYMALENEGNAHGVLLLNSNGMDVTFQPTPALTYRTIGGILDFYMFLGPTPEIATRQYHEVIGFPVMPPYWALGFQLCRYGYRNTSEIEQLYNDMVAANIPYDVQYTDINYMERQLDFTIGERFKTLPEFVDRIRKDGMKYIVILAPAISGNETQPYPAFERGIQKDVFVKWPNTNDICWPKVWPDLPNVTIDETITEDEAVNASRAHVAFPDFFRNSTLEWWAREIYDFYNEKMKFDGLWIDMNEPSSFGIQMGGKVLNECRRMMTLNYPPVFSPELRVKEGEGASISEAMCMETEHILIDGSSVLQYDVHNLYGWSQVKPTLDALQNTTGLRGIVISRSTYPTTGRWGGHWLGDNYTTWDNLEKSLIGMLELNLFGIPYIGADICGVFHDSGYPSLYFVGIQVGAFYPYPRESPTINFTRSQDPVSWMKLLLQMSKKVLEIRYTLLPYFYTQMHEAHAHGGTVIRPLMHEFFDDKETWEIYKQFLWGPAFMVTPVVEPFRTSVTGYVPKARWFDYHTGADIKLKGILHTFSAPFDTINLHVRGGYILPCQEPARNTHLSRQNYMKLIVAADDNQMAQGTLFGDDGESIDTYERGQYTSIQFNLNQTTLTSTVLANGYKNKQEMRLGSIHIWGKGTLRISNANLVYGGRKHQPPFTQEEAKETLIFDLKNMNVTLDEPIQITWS
T1 sequence (O08795 15-521): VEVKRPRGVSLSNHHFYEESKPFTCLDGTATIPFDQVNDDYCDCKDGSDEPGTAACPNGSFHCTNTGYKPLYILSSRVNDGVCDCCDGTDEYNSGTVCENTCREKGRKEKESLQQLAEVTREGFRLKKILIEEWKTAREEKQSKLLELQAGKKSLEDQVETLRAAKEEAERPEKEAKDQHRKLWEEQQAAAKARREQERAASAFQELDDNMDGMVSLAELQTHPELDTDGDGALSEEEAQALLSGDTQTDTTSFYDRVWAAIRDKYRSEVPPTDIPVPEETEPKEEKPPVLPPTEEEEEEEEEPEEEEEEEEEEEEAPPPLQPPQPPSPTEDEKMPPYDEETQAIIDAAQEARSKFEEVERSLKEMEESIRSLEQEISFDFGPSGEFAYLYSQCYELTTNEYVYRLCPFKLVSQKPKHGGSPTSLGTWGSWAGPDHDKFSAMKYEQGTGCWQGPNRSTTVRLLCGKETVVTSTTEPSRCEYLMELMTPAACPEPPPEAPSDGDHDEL
T1 sequence (Q8BHN3 33-944): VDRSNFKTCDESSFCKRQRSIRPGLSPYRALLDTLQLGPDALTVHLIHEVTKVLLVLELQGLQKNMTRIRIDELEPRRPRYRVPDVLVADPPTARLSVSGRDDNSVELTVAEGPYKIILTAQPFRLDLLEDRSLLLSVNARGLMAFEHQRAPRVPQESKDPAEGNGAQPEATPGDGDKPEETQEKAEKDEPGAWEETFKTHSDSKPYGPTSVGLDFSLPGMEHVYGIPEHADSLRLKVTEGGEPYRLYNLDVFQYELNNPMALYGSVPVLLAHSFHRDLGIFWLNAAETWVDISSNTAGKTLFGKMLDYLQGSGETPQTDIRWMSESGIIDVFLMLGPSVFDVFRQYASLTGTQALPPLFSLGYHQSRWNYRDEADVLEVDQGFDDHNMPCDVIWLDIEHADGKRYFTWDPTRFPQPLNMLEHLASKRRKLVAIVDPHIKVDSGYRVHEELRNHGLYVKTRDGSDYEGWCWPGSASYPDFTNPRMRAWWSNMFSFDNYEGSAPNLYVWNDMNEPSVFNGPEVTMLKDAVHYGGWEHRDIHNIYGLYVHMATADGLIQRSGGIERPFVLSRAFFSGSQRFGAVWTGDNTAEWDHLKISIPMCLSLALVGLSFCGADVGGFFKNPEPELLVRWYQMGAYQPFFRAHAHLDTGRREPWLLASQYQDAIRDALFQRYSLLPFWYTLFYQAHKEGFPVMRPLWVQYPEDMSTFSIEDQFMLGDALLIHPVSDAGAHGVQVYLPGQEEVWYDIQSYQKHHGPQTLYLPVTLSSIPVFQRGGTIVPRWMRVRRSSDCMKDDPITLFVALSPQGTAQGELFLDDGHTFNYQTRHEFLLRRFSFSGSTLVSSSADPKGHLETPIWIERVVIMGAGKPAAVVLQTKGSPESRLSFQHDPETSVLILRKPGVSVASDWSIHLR

For the compound `COc1cc(NCCCCCCN2C[C@H](O)[C@@H](O)[C@H](O)[C@H]2CO)cc(C2=CCCCC2)c1` [Compound 1149, (2R,3R,4R,5S)-1-(6-{[3-(cyclohex-1-en-1-yl)-5-methoxy-phenyl]amino}hexyl)-2-(hydroxymethyl)piperidine-3,4,5-triol], the IC50 in experiment [1] is less than 1 nM; in experiment [2], less than 1 nM; in experiment [3] it was less than 1 nM; in experiment [4] it was 56 nM; in experiment [5], 66 nM.

For `COc1cc(NCCCCCCN2C[C@H](O)[C@@H](O)[C@H](O)[C@H]2CO)cc(-c2ccccc2)c1` [Compound 1150, (2R,3R,4R,5S)-2-(hydroxymethyl)-1-[6-({5-methoxy-[1,1′-biphenyl]-3-yl}amino)hexyl]piperidine-3,4,5-triol], the IC50 is less than 1 nM in experiment [1]; less than 1 nM in experiment [2]; less than 1 nM in experiment [3]; 193 nM in experiment [4]; 45 nM in experiment [5].

On to `CC(C)(C)c1cc(NCCCCCCN2C[C@H](O)[C@@H](O)[C@H](O)[C@H]2CO)cc(-c2ncccn2)c1` [Compound 1151, (2R,3R,4R,5S)-1-(6-{[3-tert-butyl-5-(pyrimidin-2-yl)phenyl]amino}hexyl)-2-(hydroxymethyl)piperidine-3,4,5-triol], for which the IC50 is less than 1 nM in experiment [1]; less than 1 nM in experiment [2]; less than 1 nM in experiment [3]; 299 nM in experiment [4]; 24 nM in experiment [5].

Regarding `COc1cc(NCCc2ccc(CCN3C[C@H](O)[C@@H](O)[C@H](O)[C@H]3CO)cc2)cc(-c2ccco2)c1` [Compound 1153, (2R,3R,4R,5S)-1-{2-[4-(2-{[3-(furan-2-yl)-5-methoxy-phenyl]amino}ethyl)phenyl]ethyl}-2-(hydroxymethyl)piperidine-3,4,5-triol], the IC50 in experiment [1] amounted to 321 nM; in experiment [2], 544 nM; in experiment [3], 2500 nM; in experiment [4], 1090 nM; in experiment [5], 57 nM.

Take `COc1cc(NCCc2ccc(CCN3C[C@H](O)[C@@H](O)[C@H](O)[C@H]3CO)cc2)cc(C2=CCOCC2)c1` [Compound 1154, (2R,3R,4R,5S)-1-{2-[4-(2-{[3-(3,6-dihydro-2H-pyran-4-yl)-5-methoxyphenyl]amino}ethyl)phenyl]ethyl}-2-(hydroxymethyl)piperidine-3,4,5-triol]: the IC50 in experiment [1] stood at 624 nM; in experiment [2], 2 nM; in experiment [3] it was 2880 nM; in experiment [4], 1700 nM; in experiment [5] it was 296 nM.

Turning to `COc1cc(NCCc2ccc(CCN3C[C@H](O)[C@@H](O)[C@H](O)[C@H]3CO)cc2)cc(C2=COCCO2)c1` [Compound 1155, (2R,3R,4R,5S)-1-{2-[4-(2-{[3-(5,6-dihydro-1,4-dioxin-2-yl)-5-methoxyphenyl]amino}ethyl)phenyl]ethyl}-2-(hydroxymethyl)piperidine-3,4,5-triol], the IC50 in experiment [1] is 418 nM; in experiment [2], less than 1 nM; in experiment [3] it was 726 nM; in experiment [4] it was 3540 nM; in experiment [5], 455 nM.

On to `COc1cc(NCCc2ccc(CCN3C[C@H](O)[C@@H](O)[C@H](O)[C@H]3CO)cc2)cc(-c2ncccn2)c1` [Compound 1156, (2R,3R,4R,5S)-2-(hydroxymethyl)-1-{2-[4-(2-{[3-methoxy-5-(pyrimidin-2-yl)phenyl]amino}ethyl)phenyl]ethyl}piperidine-3,4,5-triol], for which the IC50 in experiment [1] was 287 nM; in experiment [2], 118 nM; in experiment [3], 610 nM; in experiment [4] it was 7130 nM; in experiment [5] it was 814 nM.

As to `COc1cc(NCCc2ccc(CCN3C[C@H](O)[C@@H](O)[C@H](O)[C@H]3CO)cc2)cc(-c2cccnn2)c1` [Compound 1157, (2R,3R,4R,5S)-2-(hydroxymethyl)-1-{2-[4-(2-{[3-methoxy-5-(pyridazin-3-yl)phenyl]amino}ethyl)phenyl]ethyl}piperidine-3,4,5-triol], the IC50 in experiment [1] was 107 nM; in experiment [2], 4 nM; in experiment [3], 228 nM; in experiment [4], 4590 nM; in experiment [5], 292 nM.

Consider `OC[C@@H]1[C@@H](O)[C@H](O)[C@@H](O)CN1CCc1ccc(CCNc2cc(Cl)cc(-c3ccco3)c2)cc1` [Compound 1159, (2R,3R,4R,5S)-1-{2-[4-(2-{[3-chloro-5-(furan-2-yl)phenyl]amino}ethyl)phenyl]ethyl}-2-(hydroxymethyl)piperidine-3,4,5-triol], for which the concentration for half-maximal inhibition (IC50) in experiment [1] is 25 nM; in experiment [2] it was 91 nM; in experiment [3], 847 nM; in experiment [4], 1050 nM; in experiment [5], less than 1 nM.

In the case of `OC[C@@H]1[C@@H](O)[C@H](O)[C@@H](O)CN1CCc1ccc(CCNc2cc(Cl)cc(C3=COCCO3)c2)cc1` [Compound 1161, (2R,3R,4R,5S)-1-{2-[4-(2-{[3-chloro-5-(5,6-dihydro-1,4-dioxin-2-yl)phenyl]amino}ethyl)phenyl]ethyl}-2-(hydroxymethyl)piperidine-3,4,5-triol], the IC50 was found to be 273 nM in experiment [1]; 2 nM in experiment [2]; 740 nM in experiment [3]; 2820 nM in experiment [4]; 84 nM in experiment [5].

For `OC[C@@H]1[C@@H](O)[C@H](O)[C@@H](O)CN1CCc1ccc(CCNc2cc(Cl)cc(-c3ncccn3)c2)cc1` [Compound 1162, (2R,3R,4R,5S)-1-{2-[4-(2-{[3-chloro-5-(pyrimidin-2-yl)phenyl]amino}ethyl)phenyl]ethyl}-2-(hydroxymethyl)piperidine-3,4,5-triol], the IC50 in experiment [1] is 138 nM; in experiment [2] it was less than 1 nM; in experiment [3] it was 476 nM; in experiment [4], 2680 nM; in experiment [5], 62 nM.

For the compound `OC[C@@H]1[C@@H](O)[C@H](O)[C@@H](O)CN1CCc1ccc(CCNc2cc(Cl)cc(-c3cccnn3)c2)cc1` [Compound 1163, (2R,3R,4R,5S)-1-{2-[4-(2-{[3-chloro-5-(pyridazin-3-yl)phenyl]amino}ethyl)phenyl]ethyl}-2-(hydroxymethyl)piperidine-3,4,5-triol], the IC50 is 309 nM in experiment [1]; less than 1 nM in experiment [2]; 584 nM in experiment [3]; 6820 nM in experiment [4]; 93 nM in experiment [5].

Regarding `[N-]=[N+]=Nc1ccc(NCc2ccc(-c3ccc(CN4C[C@H](O)[C@@H](O)[C@H](O)[C@H]4CO)cc3)cc2)c([N+](=O)[O-])c1` [Compound 1166, (2R,3R,4R,5S)-1-[(4′-{[(4-azido-2-nitrophenyl)amino]methyl}-[1,1′-biphenyl]-4-yl)methyl]-2-(hydroxymethyl)piperidine-3,4,5-triol], the IC50 was less than 1 nM in experiment [1]; 2010 nM in experiment [2]; 156 nM in experiment [3]; 5630 nM in experiment [4]; 1380 nM in experiment [5].

With `[N-]=[N+]=Nc1ccc(NCc2cccc(CN3C[C@H](O)[C@@H](O)[C@H](O)[C@H]3CO)c2)c([N+](=O)[O-])c1` [Compound 1169, (2R,3R,4R,5S)-1-[(3-{[(4-azido-2-nitrophenyl)amino]methyl}phenyl)methyl]-2-(hydroxymethyl)piperidine-3,4,5-triol], the IC50 in experiment [1] was less than 1 nM; in experiment [2], 16100 nM; in experiment [3], less than 1 nM; in experiment [4], 83500 nM; in experiment [5], 420 nM.

As for `[N-]=[N+]=Nc1ccc(NCc2ccc(CN3C[C@H](O)[C@@H](O)[C@H](O)[C@H]3CO)cc2)c([N+](=O)[O-])c1` [Compound 1170, (2R,3R,4R,5S)-1-[(4-{[(4-azido-2-nitrophenyl)amino]methyl}phenyl)methyl]-2-(hydroxymethyl)piperidine-3,4,5-triol], the IC50 is less than 1 nM in experiment [1]; less than 1 nM in experiment [2]; 2 nM in experiment [3]; 29900 nM in experiment [4]; 81 nM in experiment [5].
